# Source: patent US20230398101A1, “Co-agents as Therapy Against Anaerobic Pathogens” (priority 2022, published 2023)
# Where two headings read alike, the source gives them in different places.
# How the values were obtained:
# Clostridium perfringens = assay: microbe, parasite or virus in culture; format: cell-based; details: for MIC vs clinical breakpoint (susceptibility): anaerobic (Table 17)
# Clostridioides difficile = assay: Anaerobic agar-dilution AST (MIC, checkerboard FIC); format: cell-based; details: for MIC vs clinical breakpoint (susceptibility): anaerobic (Table 17)
# Clostridium septicum = assay: as above; format: cell-based; details: for MIC vs clinical breakpoint (susceptibility): anaerobic (Table 17); for MIC: Clostridium septicum
# Streptococcus mutans = assay: as above; format: cell-based; details: strain UA 159, anaerobic
# [1] = test system: Bacteroides thetaiotaomicron; assay: microbe, parasite or virus in culture; format: cell-based; details: for MIC: anaerobic
# [2] = test system: Parabacteroides distasonis; assay: Anaerobic agar-dilution AST (MIC, checkerboard FIC); format: cell-based
# Prevotella intermedia = assay: as above; format: cell-based
# [3] = test system: Aggretibacter actinomycetemcomitans; assay: as above; format: cell-based; details: strain D751, anaerobic
# Klebsiella pneumoniae = assay: Aerobic agar-dilution AST of facultative anaerobes (MIC, checkerboard FIC); format: cell-based
# [4] = test system: Lactobacillus acidophilus; assay: AST (MIC) of beneficial or mutualistic facultative anaerobic bacteria; format: cell-based
# [5] = test system: Lactobacillus delbrueckii; assay: as above; format: cell-based
# Lactobacillus plantarum = assay: as above; format: cell-based; details: Lactiplantibacillus plantarum
# Enterococcus faecalis = assay: Aerobic agar-dilution AST of facultative anaerobes (MIC, checkerboard FIC); format: cell-based
# Enterococcus faecium = assay: Aerobic agar-dilution AST of facultative anaerobes (MIC, checkerboard FIC), also at pH 5, 7, 8; format: cell-based; details: Enterococcus faecium 51559
# [6] = test system: Burkholderia thailandensis; assay: microbe, parasite or virus in culture; format: cell-based; details: ATCC700388, pH 7
# Escherichia coli = assay: Post-antibiotic effect (PAE) in vitro, viable counts; details: Escherichia coli ATCC 25922
# Staphylococcus aureus = assay: as above; details: Staphylococcus aureus ATCC 33591 (beta-lactam resistant)
structure (smiles),measurement,setting,value
"C[C@@H]1O[C@@H]1P(=O)(O)O [F, fosfomycin sodium]",MIC vs clinical breakpoint (susceptibility),Clostridium perfringens; Clostridium perfringens 2-0246-4,+
same,MIC vs clinical breakpoint (susceptibility),Clostridium perfringens; Clostridium perfringens 11-46,+
same,MIC vs clinical breakpoint (susceptibility),Clostridium perfringens; Clostridium perfringens 11-50,+
same,MIC vs clinical breakpoint (susceptibility),Clostridium perfringens; Clostridium perfringens 11-61,+
same,MIC,"Clostridium perfringens; Clostridium perfringens 12-117, anaerobic",16 µg/mL
same,MIC vs clinical breakpoint (susceptibility),Clostridium perfringens; Clostridium perfringens 12-117,+
same,MIC,"Clostridium perfringens; Clostridium perfringens, Clostridium perfringens 11-46, anaerobic",32 µg/mL
same,MIC,"Clostridium perfringens; Clostridium perfringens, Clostridium perfringens 11-50, anaerobic",8 µg/mL
same,MIC,"Clostridium perfringens; Clostridium perfringens, Clostridium perfringens 11-61, anaerobic",16 µg/mL
same,MIC,"Clostridium perfringens; Clostridium perfringens, Clostridium perfringens 12-117, anaerobic",32 µg/mL
same,MIC,"Clostridium perfringens; Clostridium perfringens, strain 2-0246-4, anaerobic",16 µg/mL
same,MIC,"Clostridium perfringens; Clostridium perfringens, strain 11-50, anaerobic",16 µg/mL
same,MIC,"Clostridium perfringens; Clostridium perfringens, strain 12-117, anaerobic",32 µg/mL
same,MIC,"Clostridium perfringens; strain 2-0246-4, anaerobic",8 µg/mL
same,MIC,"Clostridium perfringens; strain 11-50, anaerobic",8 µg/mL
same,MIC,"Clostridium perfringens; strain 12-117, anaerobic",16 µg/mL
same,MIC vs clinical breakpoint (susceptibility),Clostridioides difficile; Clostridioides difficile 2-0247-4,+
same,MIC vs clinical breakpoint (susceptibility),Clostridioides difficile; Clostridioides difficile 3/8,+
same,MIC vs clinical breakpoint (susceptibility),Clostridioides difficile; Clostridioides difficile 10-3620-5,+
same,MIC,"Clostridioides difficile; Clostridioides difficile, Clostridioides difficile 3/8, anaerobic, read-out: MIC",32 µg/mL
same,MIC,"Clostridioides difficile; Clostridioides difficile, Clostridioides difficile 10-3620-5, anaerobic",16 µg/mL
same,MIC,"Clostridioides difficile; Clostridioides difficile, strain 2-0247-4, anaerobic, read-out: MIC",16 µg/mL
same,MIC,"Clostridioides difficile; Clostridioides difficile, strain 10-3620-5, anaerobic, read-out: MIC",8 µg/mL
same,MIC,"Clostridioides difficile; strain 2-0247-4, anaerobic",32 µg/mL
same,MIC,"Clostridioides difficile; strain 10-3620-5, anaerobic",16 µg/mL
same,MIC vs clinical breakpoint (susceptibility),Clostridium septicum; Clostridium septicum 11-3571,+
same,MIC vs clinical breakpoint (susceptibility),Clostridium septicum; Clostridium septicum 15-847,+
same,MIC,"Clostridium septicum; strain 11-3571, anaerobic",16 µg/mL
same,MIC,"Clostridium septicum; strain 15-847, anaerobic",32 µg/mL
same,MIC,Streptococcus mutans,16 µg/mL
same,MIC vs clinical breakpoint (susceptibility),"[1]; Bacteroides thetaiotaomicron VPI5482, anaerobic (Table 17)",−
same,MIC,[1]; Bacteroides thetaiotaomicron VPI 5842,>128 µg/mL
same,MIC,"[1]; Bacteroides thetaiotaomicron, Bacteroides thetaiotaomicron VPI 5842",128 µg/mL
same,MIC,"[1]; Bacteroides thetaiotaomicron, strain VPI5482 (Tables 1, 2) / VPI 5842 (other tables)",> 128 µg/mL
same,MIC,[2]; Parabacteroides distasonis,> 128 µg/mL
same,MIC,"[2]; Parabacteroides distasonis CLA 348, anaerobic",>128 µg/mL
same,MIC,"Prevotella intermedia; Prevotella intermedia, Prevotella intermedia 8071621, anaerobic",> 128 µg/mL
same,MIC,"Prevotella intermedia; Prevotella intermedia, strain 807114, anaerobic",> 128 µg/mL
same,MIC,"Prevotella intermedia; Prevotella intermedia, strain 8071621, anaerobic",> 128 µg/mL
same,MIC,"Prevotella intermedia; Prevotella intermedia, strain 8071621, anaerobic, read-out: MIC",64 µg/mL
same,MIC,"Prevotella intermedia; strain 8071621, anaerobic",128 µg/mL
same,MIC,[3],16 µg/mL
same,MIC,Klebsiella pneumoniae; Klebsiella pneumoniae 870964,64 µg/mL
same,MIC,Klebsiella pneumoniae; Klebsiella pneumoniae 875638,64 µg/mL
same,MIC,"Klebsiella pneumoniae; pH 5, Klebsiella pneumoniae 848788, pH 5",64000 µg/mL
same,MIC,"Klebsiella pneumoniae; strain 848788, aerobic",32 µg/mL
same,MIC,"Klebsiella pneumoniae; strain 857147, aerobic",32 µg/mL
same,MIC,"Klebsiella pneumoniae; strain 868968, aerobic",8 µg/mL
same,MIC,"Klebsiella pneumoniae; strain 869028, aerobic",8 µg/mL
same,MIC,"Klebsiella pneumoniae; strain 870964, aerobic",8 µg/mL
same,MIC,"Klebsiella pneumoniae; strain 875638, aerobic",16 µg/mL
same,MIC,"Klebsiella pneumoniae; strain 892483, aerobic",4 µg/mL
same,MIC,"Klebsiella pneumoniae; strain 926439, aerobic",4 µg/mL
same,MIC,"Klebsiella pneumoniae; strain 926456, aerobic",64 µg/mL
same,MIC,"Klebsiella pneumoniae; strain 939665, aerobic",64 µg/mL
same,MIC,"Klebsiella pneumoniae; strain 957464, aerobic",16 µg/mL
same,MIC,"Klebsiella pneumoniae; strain 957467, aerobic",16 µg/mL
same,MIC,"Klebsiella pneumoniae; strain 984643, aerobic",16 µg/mL
same,MIC,"Klebsiella pneumoniae; strain 993434, aerobic",16 µg/mL
same,MIC,"Klebsiella pneumoniae; strain 995460, aerobic",16 µg/mL
same,MIC,"Klebsiella pneumoniae; strain 1040205, aerobic",16 µg/mL
same,MIC,[4],> 128 µg/mL
same,MIC,[5],> 128 µg/mL
same,MIC,Lactobacillus plantarum,> 128 µg/mL
same,MIC,Enterococcus faecalis; Enterococcus faecalis,> 128 µg/mL
same,MIC,"Enterococcus faecalis; Enterococcus faecalis 108, pH 5, read-out: MIC",8000 µg/mL
same,MIC,"Enterococcus faecalis; Enterococcus faecalis 1086432, pH 7, read-out: MIC",64000 µg/mL
same,MIC,"Enterococcus faecalis; Enterococcus faecalis, ATCC51559",> 128 µg/mL
same,MIC,Enterococcus faecium; pH 5,16000 µg/mL
same,MIC,Enterococcus faecium; pH 8,64000 µg/mL
same,MIC,[6],64000 µg/mL
same,PAE,"Escherichia coli; exposure μg/ml: F 1, D/S 0.5/9.5, CAv 4/8, F/D/S 0.125/0.125/2.38, F/D/S/CAv 0.06/0.03/0.6/4/0.25",0.5 h
same,PAE,"Escherichia coli; exposure μg/ml: F 2, D/S 1/19, CAv 4/16, F/D/S 0.25/0.25/4.75, F/D/S/CAv 0.125/0.06/1.19/4/0.5",0.5 h
same,PAE,"Escherichia coli; exposure μg/ml: F 4, D/S 2/38, CAv 4/32, F/D/S 0.5/0.5/9.5, F/D/S/CAv 0.25/0.125/2.38/4/1",1 h
same,PAE,Escherichia coli; exposure μg/ml: F 8,1.5 h
same,PAE,"Staphylococcus aureus; exposure μg/ml: F 16, D/S 1/19, V 4, F/D/S 4/0.25/4.75, F/D/S/V 2/0.125/2.38/0.5",0.5 h
same,PAE,"Staphylococcus aureus; exposure μg/ml: F 32, D/S 2/38, V 8, F/D/S 8/0.5/9,5, F/D/S/V 4/0.25/4.75/1",0.5 h
same,PAE,"Staphylococcus aureus; exposure μg/ml: F 64, D/S 4/64, V 16, F/D/S 16/1/19, F/D/S/V 8/0.5/9.5/2",0.5 h
